Measured values published in ChEMBL document CHEMBL1201862, “PubChem BioAssay data set” (2004).
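Compound exposure: 48 hours, 5 concentrations, 96-well plates. GI50: concentration for 50% inhibition of growth.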 Active and inactive are the calls of the source. No stated cut-off is given here; in the data, active = GI50 up to about 1.1 µM and inactive = higher.

Experiments:
Assay in all cases: DTP human tumour cell line panel, 48 h
Malme-3M = test system: Malme-3M
LXFL 529 = test system: LXFL 529
UO-31 = test system: UO-31
KM-20L2 = test system: KM-20L2
A498 = test system: A498
KM12 = test system: KM12
786-0 = test system: 786-0
SF-295 = test system: SF-295
MOLT-4 = test system: MOLT-4
OVCAR-5 = test system: OVCAR-5
UACC-62 = test system: UACC-62
SF-268 = test system: SF-268
CCRF-CEM = test system: CCRF-CEM
NCI-H522 = test system: NCI-H522
CAKI-1 = test system: CAKI-1
HCC 2998 = test system: HCC 2998
U-251 = test system: U-251
NCI-H226 = test system: NCI-H226
SR = test system: SR

Measured: GI50

NC(CCC(=O)NC(CSSCCCCS(=O)O)C(=O)NCC(=O)O)C(=O)O (configuration not stated)
inactive: Malme-3M > 100 µM | LXFL 529 > 100 µM | UO-31 > 100 µM | KM-20L2 > 100 µM | A498 > 100 µM | KM12 > 100 µM | 786-0 > 100 µM | SF-295 > 100 µM | MOLT-4 29.5 µM | OVCAR-5 > 100 µM | UACC-62 > 100 µM | SF-268 > 100 µM | CCRF-CEM > 100 µM | NCI-H522 > 100 µM | CAKI-1 > 100 µM | HCC 2998 > 100 µM | U-251 > 100 µM

CN(C)c1ccc(/C=C/C=C\c2cc(/C=C/C=C/c3ccc(N(C)C)cc3)[s+]c3ccccc23)cc1.[O-][Cl+3]([O-])([O-])[O-]
inactive: Malme-3M 24.4 µM | LXFL 529 8.26 µM | UO-31 > 100 µM | KM-20L2 > 100 µM | NCI-H226 > 100 µM | A498 > 100 µM | KM12 > 100 µM | 786-0 90.6 µM | SF-295 > 100 µM | MOLT-4 > 100 µM | OVCAR-5 > 100 µM | UACC-62 28.2 µM | SF-268 > 100 µM | NCI-H522 10 µM | CAKI-1 10 µM | U-251 10 µM

O=C(CC(=O)C1CCOC1=O)C(=O)Nc1cccc(Cl)c1 (configuration not stated)
inactive: Malme-3M > 100 µM | LXFL 529 > 100 µM | UO-31 > 100 µM | KM-20L2 > 100 µM | NCI-H226 > 100 µM | A498 > 100 µM | KM12 > 100 µM | 786-0 > 100 µM | SF-295 > 100 µM | MOLT-4 > 100 µM | OVCAR-5 > 100 µM | UACC-62 > 100 µM | SF-268 > 100 µM | NCI-H522 > 100 µM | CAKI-1 > 100 µM | HCC 2998 > 100 µM | U-251 > 100 µM

[N-]=[N+]=Nc1c(Br)c(=O)[nH]c(=O)n1COCCO
inactive: Malme-3M > 100 µM | LXFL 529 > 100 µM | UO-31 > 100 µM | KM12 > 100 µM | 786-0 > 100 µM | SR > 100 µM | SF-295 > 100 µM | MOLT-4 > 100 µM | OVCAR-5 > 100 µM | UACC-62 > 100 µM | SF-268 > 100 µM | CCRF-CEM 63.4 µM | NCI-H522 32.2 µM | CAKI-1 > 100 µM | HCC 2998 > 100 µM | U-251 > 100 µM

CCOC(=O)c1ccc(N2C(=O)Cc3ccccc3C2=O)cc1
inactive: Malme-3M > 100 µM | LXFL 529 > 100 µM | UO-31 > 100 µM | KM-20L2 > 100 µM | NCI-H226 > 100 µM | KM12 > 100 µM | 786-0 > 100 µM | SR > 100 µM | SF-295 > 100 µM | MOLT-4 > 100 µM | OVCAR-5 > 100 µM | UACC-62 > 100 µM | SF-268 > 100 µM | HCC 2998 > 100 µM | U-251 > 100 µM

Cc1ccc(-c2nc3ccccc3c(=O)n2NC2OC(CO)C(O)C(O)C2O)cc1 (configuration not stated)
inactive: Malme-3M 48.2 µM | LXFL 529 > 100 µM | UO-31 > 100 µM | KM-20L2 > 100 µM | NCI-H226 > 100 µM | A498 > 100 µM | KM12 > 100 µM | 786-0 > 100 µM | SF-295 > 100 µM | MOLT-4 > 100 µM | OVCAR-5 > 100 µM | UACC-62 > 100 µM | SF-268 > 100 µM | CCRF-CEM > 100 µM | NCI-H522 > 100 µM | CAKI-1 39.6 µM | HCC 2998 > 100 µM | U-251 > 100 µM

[N-]=[N+]=Nc1cc(=O)oc2ccccc12
inactive: Malme-3M > 100 µM | LXFL 529 > 100 µM | UO-31 > 100 µM | NCI-H226 > 100 µM | KM12 > 100 µM | 786-0 > 100 µM | SR 48.9 µM | SF-295 > 100 µM | MOLT-4 > 100 µM | OVCAR-5 > 100 µM | UACC-62 > 100 µM | SF-268 > 100 µM | CCRF-CEM > 100 µM | NCI-H522 > 100 µM | CAKI-1 > 100 µM | U-251 > 100 µM

COc1ccc2ccccc2c1C1=NC(C)(C)CO1
inactive: Malme-3M > 100 µM | LXFL 529 > 100 µM | UO-31 > 100 µM | KM-20L2 > 100 µM | NCI-H226 > 100 µM | KM12 > 100 µM | 786-0 > 100 µM | SR > 100 µM | SF-295 > 100 µM | MOLT-4 > 100 µM | UACC-62 > 100 µM | SF-268 > 100 µM | CCRF-CEM > 100 µM | NCI-H522 > 100 µM | CAKI-1 > 100 µM | U-251 > 100 µM

COC(=O)C1CCc2c(OC)ccc(OC)c2C1=O (configuration not stated)
inactive: Malme-3M > 100 µM | LXFL 529 > 100 µM | UO-31 > 100 µM | KM-20L2 > 100 µM | A498 > 100 µM | KM12 > 100 µM | 786-0 > 100 µM | SF-295 > 100 µM | MOLT-4 > 100 µM | OVCAR-5 > 100 µM | UACC-62 > 100 µM | CCRF-CEM > 100 µM | NCI-H522 > 100 µM | CAKI-1 > 100 µM | HCC 2998 > 100 µM | U-251 > 100 µM
